{
  "source": "patent US20240124556A1",
  "about": "“KERATIN BD-3, PREPARATION METHOD THEREFOR AND PHARMACEUTICAL COMPOSITION AND USE THEREOF” (INSTITUTE OF MATERIA MEDICA, CHINESE ACADEMY OF MEDICAL …, priority 2019, published 2024)",
  "tested_on": "phenol red excretion in mice",
  "test": "Expectorant test, phenol red excretion method in mice",
  "type": "in vivo, ICR mice",
  "procedure": "• Animals: male ICR mice; • Drugs and reagents: Mucosolvan (ambroxol hydrochloride tablets), phenol red, sodium bicarbonate, protein BD-3; • Instruments: centrifuge (Sigma-3K15 type), balance (XS105DU type), Microplate tester (BIO-TEK type). • Experiment Grouping: • Solvent control group; • Mucosolvan 30 mg/kg group; • Protein BD-3, 20 mg/kg group, 50 mg/kg group.\nThe animals were fasted and water was taken freely 16 hours before the experiment. Orally administered Mucosolvan and different doses of protein BD-3 (administration volume 10 ml/kg) in groups, and the solvent control group was given the same volume of distilled water. One hour later, 2.5% phenol red solution was injected intraperitoneally. Mice were sacrificed by neck dislocation after 30 minutes. […] Measure and record the absorbance at 546 nm. According to the standard curve of phenol red, the excretion of phenol red was calculated.\nRecord the time point of oral administration, the time point of intraperitoneal injection of 2.5% phenol red solution, and the time point of taking the trachea respectively; The absorbance of each group of samples was measured by the microplate reader at 546 nm, Calculate the excretion of phenol red according to the standard curve of phenol red. […]",
  "note": "Counter-ions that a name gives are not always drawn.",
  "data": [
    {"compound": "Nc1c(Br)cc(Br)cc1CN[C@H]1CC[C@H](O)CC1", "note": "[Mucosolvan, ambroxol hydrochloride, reference compound]", "values": [
      {"measurement": "Phenol red excretion", "setting": "Mucosolvan 30 mg/kg oral, X ± SEM, solvent control 0.506 ± 0.040", "result": "1.061 ± 0.117", "unit": "µg/mL"},
      {"measurement": "Amount of phenol red excretion vs solvent control (in words)", "setting": "Mucosolvan 30 mg/kg, P<0.05", "result": "significantly increased"}
    ]}
  ]
}
